In patent US10023570B2 (Array BioPharma, Inc., priority 2015, dated 2018):

The compounds below were run against human KDR protein in HEK-293 cells (Homo sapiens (Human), UniProt P35968) (assay: KDR Cell Assay (phospho-KDR in HEK-293 cells expressing inducible KDR)). Conditions: pKDR Cell HEK 10% FBS IC50, HEK-293 cells expressing inducible KDR, VEGF stimulated, 10% FBS.
Assay type: cell-based
Description: The cellular potency of a compound inhibiting KDR kinase was determined in HEK-293 cells expressing an inducible human KDR protein. […] The cells were incubated for 1 hour with test compound in DMEM at a final DMSO concentration of 0.25%. […] The media was aspirated and 35 μL of a 1× lysis buffer was added. […] The lysate was stored at −80° C. until ready for assay. Phospho-KDR was measured using a phospho-KDR kit (Catalog #K151BOC) purchased from Meso Scale Diagnostics (Rockville, Md.) according to the manufacturer's instructions. All values are expressed as percent of percent of control (POC). The POC values were fitted to a 4 parameter logistic curve fit and the IC50 value is point where the curve crosses 50 POC.

human KDR protein in HEK-293 cells, sequence (P35968 20-1356): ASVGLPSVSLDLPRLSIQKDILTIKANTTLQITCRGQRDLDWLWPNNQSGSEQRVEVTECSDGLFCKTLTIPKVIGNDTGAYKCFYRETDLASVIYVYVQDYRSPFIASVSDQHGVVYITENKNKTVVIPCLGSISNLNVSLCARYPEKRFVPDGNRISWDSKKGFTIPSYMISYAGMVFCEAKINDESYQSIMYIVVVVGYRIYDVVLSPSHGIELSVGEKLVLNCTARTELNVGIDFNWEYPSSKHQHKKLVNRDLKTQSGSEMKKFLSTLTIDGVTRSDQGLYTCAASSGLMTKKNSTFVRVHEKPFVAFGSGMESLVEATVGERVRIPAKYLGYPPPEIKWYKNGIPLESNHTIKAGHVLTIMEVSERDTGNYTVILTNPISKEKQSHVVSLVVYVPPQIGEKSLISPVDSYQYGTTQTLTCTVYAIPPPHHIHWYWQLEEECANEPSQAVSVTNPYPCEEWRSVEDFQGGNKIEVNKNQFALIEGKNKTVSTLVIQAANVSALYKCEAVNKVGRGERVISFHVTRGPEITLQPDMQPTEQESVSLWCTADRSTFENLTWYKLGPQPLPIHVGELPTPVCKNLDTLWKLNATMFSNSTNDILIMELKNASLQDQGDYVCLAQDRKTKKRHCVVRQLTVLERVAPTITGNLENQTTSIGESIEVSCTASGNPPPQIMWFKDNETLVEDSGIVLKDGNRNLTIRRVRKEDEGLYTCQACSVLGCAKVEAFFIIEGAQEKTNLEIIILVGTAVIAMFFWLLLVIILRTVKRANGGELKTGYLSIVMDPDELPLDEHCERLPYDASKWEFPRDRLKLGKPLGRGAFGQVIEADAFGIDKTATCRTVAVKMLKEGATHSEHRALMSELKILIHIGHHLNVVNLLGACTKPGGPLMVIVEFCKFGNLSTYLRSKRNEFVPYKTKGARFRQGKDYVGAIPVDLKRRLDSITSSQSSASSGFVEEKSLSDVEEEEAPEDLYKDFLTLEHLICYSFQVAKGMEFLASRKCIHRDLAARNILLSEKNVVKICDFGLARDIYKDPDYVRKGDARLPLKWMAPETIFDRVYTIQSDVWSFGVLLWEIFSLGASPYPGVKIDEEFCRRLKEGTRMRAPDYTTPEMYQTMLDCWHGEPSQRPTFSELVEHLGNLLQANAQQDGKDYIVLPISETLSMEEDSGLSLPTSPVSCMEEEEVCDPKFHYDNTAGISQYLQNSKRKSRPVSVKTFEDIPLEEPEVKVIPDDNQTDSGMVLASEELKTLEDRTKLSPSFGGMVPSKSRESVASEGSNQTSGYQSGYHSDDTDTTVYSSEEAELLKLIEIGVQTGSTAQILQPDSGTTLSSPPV

| SMILES | IC50 [nM] |
| --- | --- |
| Cn1cc(-c2cc(-c3ccc(N4CCN(C(=O)Cc5ccn(C)n5)CC4)nc3)c3c(C#N)cnn3c2)cn1 [Example 42, 4-(6-(4-(2-(1-methyl-1H-pyrazol-3-yl)acetyl)piperazin-1-yl)pyridin-3-yl)-6-(1-methyl-1H-pyrazol-4-yl)pyrazolo[1,5-a]pyridine-3-carbonitrile 2,2,2-trifluoroacetate] | 502 |
| Cn1cc(-c2cc(-c3ccc(N4CCN(C(=O)CCc5cccnc5)CC4)nc3)c3c(C#N)cnn3c2)cn1 [Example 43, 6-(1-methyl-1H-pyrazol-4-yl)-4-(6-(4-(3-(pyridin-3-yl)propanoyl)piperazin-1-yl)pyridin-3-yl)pyrazolo[1,5-a]pyridine-3-carbonitrile bis(2,2,2-trifluoroacetate)] | 653 |
| Cn1cc(-c2cc(-c3ccc(N4CCN(C(=O)[C@H](N)c5ccccc5)CC4)nc3)c3c(C#N)cnn3c2)cn1 [Example 48, (R)-4-(6-(4-(2-amino-2-phenylacetyl)piperazin-1-yl)pyridin-3-yl)-6-(1-methyl-1H-pyrazol-4-yl)pyrazolo[1,5-a]pyridine-3-carbonitrile bis(2,2,2-trifluoroacetate)] | 612 |
| Cc1cnc(C(=O)N2CCN(c3ccc(-c4cc(-c5cnn(C)c5)cn5ncc(C#N)c45)cn3)CC2)cn1 [Example 49, 6-(1-methyl-1H-pyrazol-4-yl)-4-(6-(4-(5-methylpyrazine-2-carbonyl)piperazin-1-yl)pyridin-3-yl)pyrazolo[1,5-a]pyridine-3-carbonitrile bis(2,2,2-trifluoroacetate)] | 237 |
| Cn1cc(-c2cc(-c3ccc(N4CCN(C(=O)[C@@H](N)c5ccccc5)CC4)nc3)c3c(C#N)cnn3c2)cn1 [Example 50, (S)-4-(6-(4-(2-amino-2-phenylacetyl)piperazin-1-yl)pyridin-3-yl)-6-(1-methyl-1H-pyrazol-4-yl)pyrazolo[1,5-a]pyridine-3-carbonitrile bis(2,2,2-trifluoroacetate)] | 1190 |
| Cn1cc(-c2cc(-c3ccc(N4CCN(C(=O)c5c(F)cccc5F)CC4)nc3)c3c(C#N)cnn3c2)cn1 [Example 51, 4-(6-(4-(2,6-difluorobenzoyl)piperazin-1-yl)pyridin-3-yl)-6-(1-methyl-1H-pyrazol-4-yl)pyrazolo[1,5-a]pyridine-3-carbonitrile 2,2,2-trifluoroacetate] | 267 |
| Cn1cc(-c2cc(-c3ccc(N4CCN(C(=O)[C@H]5CCCO5)CC4)nc3)c3c(C#N)cnn3c2)cn1 [Example 58, (R)-6-(1-methyl-1H-pyrazol-4-yl)-4-(6-(4-(tetrahydrofuran-2-carbonyl)piperazin-1-yl)pyridin-3-yl)pyrazolo[1,5-a]pyridine-3-carbonitrile] | 439 |
| Cn1cc(-c2cc(-c3ccc(N4CCN(C(=O)[C@@H]5CCCO5)CC4)nc3)c3c(C#N)cnn3c2)cn1 [Example 60, (S)-6-(1-methyl-1H-pyrazol-4-yl)-4-(6-(4-(tetrahydrofuran-2-carbonyl)piperazin-1-yl)pyridin-3-yl)pyrazolo[1,5-a]pyridine-3-carbonitrile] | 376 |
| Cn1cc(-c2cc(-c3ccc(N4CCN(C(=O)c5ccccc5)CC4)nc3)c3c(C#N)cnn3c2)cn1 [Example 69, 4-(6-(4-benzoylpiperazin-1-yl)pyridin-3-yl)-6-(1-methyl-1H-pyrazol-4-yl)pyrazolo[1,5-a]pyridine-3-carbonitrile] | 117 |
| Cn1cc(-c2cc(-c3ccc(N4CCN(C(=O)C5CCOCC5)CC4)nc3)c3c(C#N)cnn3c2)cn1 [Example 74, 6-(1-methyl-1H-pyrazol-4-yl)-4-(6-(4-(tetrahydro-2H-pyran-4-carbonyl)piperazin-1-yl)pyridin-3-yl)pyrazolo[1,5-a]pyridine-3-carbonitrile] | 1350 |
| Cn1cc(-c2cc(-c3ccc(N4CCN(C(=O)CC5CC5)CC4)nc3)c3c(C#N)cnn3c2)cn1 [Example 77, 4-(6-(4-(2-cyclopropylacetyl)piperazin-1-yl)pyridin-3-yl)-6-(1-methyl-1H-pyrazol-4-yl)pyrazolo[1,5-a]pyridine-3-carbonitrile] | 605 |
| Cn1cc(-c2cc(-c3ccc(N4CCN(C(=O)C5(O)CC5)CC4)nc3)c3c(C#N)cnn3c2)cn1 [Example 81, 4-(6-(4-(1-hydroxycyclopropane-1-carbonyl)piperazin-1-yl)pyridin-3-yl)-6-(1-methyl-1H-pyrazol-4-yl)pyrazolo[1,5-a]pyridine-3-carbonitrile] | 762 |
| CO[C@@H](C(=O)N1CCN(c2ccc(-c3cc(-c4cnn(C)c4)cn4ncc(C#N)c34)cn2)CC1)c1ccccc1 [Example 83] | 135 |

Further lines, results first:

| IC50 [nM] | SMILES |
| --- | --- |
| 1300 | Cn1cc(-c2cc(-c3ccc(N4CCN(C(=O)CC5CCOC5)CC4)nc3)c3c(C#N)cnn3c2)cn1 (stereo not shown) [Example 62, 6-(1-methyl-1H-pyrazol-4-yl)-4-(6-(4-(2-(tetrahydrofuran-3-yl)acetyl)piperazin-1-yl)pyridin-3-yl)pyrazolo[1,5-a]pyridine-3-carbonitrile] |
| 789 | Cn1cc(-c2cc(-c3ccc(N4CCN(C(=O)C5CC5)CC4)nc3)c3c(C#N)cnn3c2)cn1 [Example 68, 4-(6-(4-(cyclopropanecarbonyl)piperazin-1-yl)pyridin-3-yl)-6-(1-methyl-1H-pyrazol-4-yl)pyrazolo[1,5-a]pyridine-3-carbonitrile] |
| 503 | Cn1cc(-c2cc(-c3ccc(N4CCN(C(=O)Cc5cccnc5)CC4)nc3)c3c(C#N)cnn3c2)cn1 [Example 71, 6-(1-methyl-1H-pyrazol-4-yl)-4-(6-(4-(2-(pyridin-3-yl)acetyl)piperazin-1-yl)pyridin-3-yl)pyrazolo[1,5-a]pyridine-3-carbonitrile] |
| 99.9 | Cn1cc(-c2cc(-c3ccc(N4CCN(C(=O)c5ccccn5)CC4)nc3)c3c(C#N)cnn3c2)cn1 [Example 72, 6-(1-methyl-1H-pyrazol-4-yl)-4-(6-(4-picolinoylpiperazin-1-yl)pyridin-3-yl)pyrazolo[1,5-a]pyridine-3-carbonitrile] |
| 296 | Cn1cc(-c2cc(-c3ccc(N4CCN(C(=O)c5cccnc5)CC4)nc3)c3c(C#N)cnn3c2)cn1 [Example 73, 6-(1-methyl-1H-pyrazol-4-yl)-4-(6-(4-nicotinoylpiperazin-1-yl)pyridin-3-yl)pyrazolo[1,5-a]pyridine-3-carbonitrile] |
| 1010 | Cn1cc(-c2cc(-c3ccc(N4CCN(C(=O)CC5CCOCC5)CC4)nc3)c3c(C#N)cnn3c2)cn1 [Example 76, 6-(1-methyl-1H-pyrazol-4-yl)-4-(6-(4-(2-(tetrahydro-2H-pyran-4-yl)acetyl)piperazin-1-yl)pyridin-3-yl)pyrazolo[1,5-a]pyridine-3-carbonitrile] |
| 80.6 | Cn1cc(-c2cc(-c3ccc(N4CCN(C(=O)Cc5ccccc5)CC4)nc3)c3c(C#N)cnn3c2)cn1 [Example 78, 6-(1-methyl-1H-pyrazol-4-yl)-4-(6-(4-(2-phenylacetyl)piperazin-1-yl)pyridin-3-yl)pyrazolo[1,5-a]pyridine-3-carbonitrile] |
| 91.2 | Cn1cc(-c2cc(-c3ccc(N4CCN(C(=O)[C@H](O)c5ccccc5)CC4)nc3)c3c(C#N)cnn3c2)cn1 [Example 82, (R)-4-(6-(4-(2-hydroxy-2-phenylacetyl)piperazin-1-yl)pyridin-3-yl)-6-(1-methyl-1H-pyrazol-4-yl)pyrazolo[1,5-a]pyridine-3-carbonitrile] |
| 1260 | CO[C@H](C(=O)N1CCN(c2ccc(-c3cc(-c4cnn(C)c4)cn4ncc(C#N)c34)cn2)CC1)c1ccccc1 [Example 84] |
